Series [1] is classed as in vivo, C57BL/6 J mice. The note with it: Day 28, pathologist evaluation, low and high doses.
Procedure: Toxicity was evaluated by clinical observations, cage-side observations (twice daily), and body weight (weekly). Formaldehyde-fixed dermal tissue specimens (one per animal) were paraffin-embedded, sectioned, and H&E stained using established methods (JIT Labs, jit-labs.com). The slides were evaluated for microscopic findings by a certified pathologist (Vet Path Services, Inc., Mason, OH). Histopathology grades were assigned as grade 1 (minimal), grade 2 (mild), grade 3 (moderate), grade 4 (marked), or grade 5 (severe) based on an increasing extent of overall change.
The subject of the next series is OAT3. The note with it: in vitro studies; cited from earlier work.
The conditions of series [2]: cited from earlier work.
The test system of another series is OAT1. The note with it: in vitro studies; cited from earlier work.
Series [3] is described as follows: MALDI imaging mass spectrometry of dermal tissues adjacent to the implant. The series is classed as in vivo, C57BL/6 J mice. On the procedure: The used implants, the surrounding capsule, and the encasing dermal tissue were removed as a block in accordance with ISO 10993-6 guidelines, processed and stored, as described elsewhere. Briefly, the capsule was cut longitudinally and rolled open, taking care not to disrupt the architecture of the tissue or to damage the used implant. A portion of the tissue specimen was placed into 4% paraformaldehyde solution (phosphate-buffered at pH 7.2), and stored at 4 °C, for histopathology and two other portions were flash-frozen in liquid nitrogen for drug concentration analysis as well as for drug spatial distribution analysis by MALDI-IMS (vide infra).
Frozen mouse tissue specimens were shipped to Vanderbilt University on dry ice and stored at − 80 °C prior to use. Tissues were removed from the − 80 °C freezer and placed in a − 20 °C cryostat (CM 1900, Leica Biosystems, Buffalo Grove, IL) and sectioned. Tissue samples that had been prepared via removal of the used implant were affixed to the cryostat chuck with optimal cutting temperature (OCT) polymer and were cut on the cryostat into 12 µm thick sections for imaging mass spectrometry and H&E staining.
Tissue samples that still contained the implant in place were embedded in OCT prior to sectioning. In order to minimize the artifactual signal from the TAF powder after sectioning (the act of the cryostat blade cutting through an intact implant distributed residual TAF powder that still remained in the used implant onto the surrounding tissue section), house vacuum was used to remove visible TAF powder, followed by lightly running nitrogen gas over the plate to remove any additional loose powder from the slide.
The tissue sections were thaw-mounted onto indium-tin oxide coated glass slides for imaging (Delta Technologies, Ltd, Loveland, CO). The tissue sections were left to dry for at least 15 min in a desktop vacuum desiccator prior to matrix application. […] For 9AA, four passes were applied at 85 °C in a crisscross pattern, with a 700 mm min^-1 stage velocity, 2 mm track spacing, and 0.15 mL min^-1 flow rate. For DHB the same method was used, except eight passes were applied and the stage velocity was 1300 mm min^-1.
Flash-frozen dermal tissue samples collected adjacent to the TAF implants and sectioned were analyzed with a linear ion trap mass spectrometer equipped with a MALDI source and a nitrogen laser (LTQ XL, Thermo Scientific, Waltham, MA). The structures of compounds of interest are shown in Scheme 1. Targeted MS/MS methods were optimized for each compound using authentic samples as standards, with the final parameters shown in Appendix A under Supplementary Information. Pseudo-selected reaction monitoring mode was used for imaging by isolating precursor ions with a 1 Da window, fragmenting them, and acquiring full product ion mass spectra at each pixel. TFV, TFV-MP, and TFV-DP were analyzed in negative ion mode, while TAF, Metabolite X, and Metabolite Y were analyzed in positive ion mode. In most cases, after imaging, the matrix was removed and the tissue section that had been imaged was H&E stained for better image registration with tissue morphology. Standard images were acquired at either 50 or 100 µm spatial resolution. Reconstructed ion images were generated in ImageQuest software (Thermo Scientific, Waltham, MA) by plotting the intensity of the diagnostic fragment ion or ions as a function of location across the tissue surface.

The nature of series [4]: Simulation of plasma TFV and PBMC TFV-DP following TAF delivery from implants. Set-up: species or system C57BL/6 J mice. The note with it: dose-dependent. On the procedure: All other parameters were unmodified from Table 2. Our starting hypothesis was that the difference between SQ injection and long-acting SQ delivery via implant would be strictly related to the implant release rate. Once the drug was released from the device, it was hypothesized to be transferred from the SQ pocket to body circulation via the same mechanism and governed by the same parameters as by SQ injection, and therefore the same model was employed.
Compartmental analyses were performed in Phoenix software (version 8.3, Certara, Princeton, NJ) using a published, simple, structural PK model describing the TFV kinetics. IV and SQ data were modeled simultaneously. Due to the destructive nature of the blood sampling, data were modeled using a naïve-pooled algorithm, without inter-animal variability. The resulting systemic parameters, along with the implant in vivo release rates on a per animal basis, were used to co-model (predict) concentration data in mice following during implant dosing.

The conditions of series [5]: rapidly converts to TFV; cited from earlier work.
A further series concerns HIV-1. On the procedure: The BLT hu-mouse model has been used extensively in efficacy studies involving HIV-1 prevention research[54]–[58]. […] The mice were challenged with HIV-1 either rectally or vaginally 6 h post dosing and monitored for infection status for 12 weeks.
The generation of BLT hu-mice was performed as described in Baum et al.[58], and the references contained therein.
Vaginal or rectal challenge with HIV-1 was performed 6 h after dosing and HIV-1 infection status was monitored by quantifying viral RNA concentration in peripheral blood (plasma) at 1, 2, 3, 6, and 12 weeks post challenge as fully described in Baum et al.[58], and the references contained therein.

The mark [6] stands for this setting: oral TAF 6 h before rectal HIV-1 challenge.
[7] abbreviates: oral TAF 6 h before vaginal HIV-1 challenge.

Where two headings read alike, the source gives them in different places. Where only a bound is given, the exact number is not on record here.

As for `CC(C)OC(=O)[C@H](C)N[P@](=O)(CO[C@H](C)Cn1cnc2c(N)ncnc21)Oc1ccccc1` [TAF, tenofovir alafenamide], the “Effect of TAF dose on microscopic appearance of tissues” value in series [1] is “no effects”. Besides, the “Impurities formed during in vivo implant use” value (HPLC of retrieved implants) was “less than 1%”. Further, for the setting “HPLC, irrespective of the implant group”, the “TAF peak area of total peak area (TAF and decomposition products) in retrieved implants” value is reported as over 98%. Also, the “Substrate for renal uptake transporter OAT3” value in the series on OAT3 is on record as “not believed to be a substrate”. The “Efflux transport in the intestine” value in series [2] is “vulnerable to efflux transport”. The “Substrate for renal uptake transporter OAT1” value in the series with OAT1 is recorded as “not believed to be a substrate”. Moreover, the “Detection by MALDI-IMS in dermal tissue samples during implant TAF delivery” value in series [3] (all medicated specimens) was “detected”. Moreover, the “Spatial distribution in dermal tissue sections (MALDI-IMS)” value in [3] (high-releasing (0.58 mg d^-1) implants, D3–D28) is “localized close to the implant”. Further, the “MALDI-IMS signal and localization with implant in situ” value in series [3] (low-releasing (0.23 mg d^-1) implants, Day 14, 100 µm resolution) is on record as “most abundant signals”. The “Exposure scaling (apparent bioavailability) from subdermal implants vs SQ or IV injection” value in series [4] was 4–5 ×. Moreover, the “Stability in mouse plasma” value in series [5] is “highly unstable”. Also, in the series on HIV-1 (oral TAF), the “Protection from rectal HIV-1 acquisition” value was “fully protective” and the “Protection from vaginal HIV-1 acquisition” value is “fully protective”. In the series on HIV-1 (setting [6]), the ED50 is recorded as 1.27 µmol and the ED90 is 1.62 µmol. In the series with HIV-1 (setting [7]), this compound came in with an ED50 of 1.17 µmol and an ED90 of 2.15 µmol. Besides, in the series on HIV-1 (rectal), the “m-value ± SEM (median-effect model)” value was determined as 9.18 ± 1.94. Also, the “m-value ± SEM (median-effect model)” value in the series on HIV-1 (vaginal) stood at 3.60 ± 0.22.
